Measured values taken from US5168100A, “HP530 compounds and process for preparing the same” (Sapporo Breweries Limited, priority 1990, dated 1992).
≈ marks a conversion by molar mass, not a printed value.

System: Staphylococcus epidermidis JCM2414
Experiment: Antimicrobial activity (MIC), Staphylococcus epidermidis
Format: cell-based
Settings: not given
Text: (§1) The minimum inhibitory concentrations (MIC's) of the HP530 compounds and their derivatives of the invention against bacteria and fungi are shown in Table 2.

SMILES | MIC [mg/L]
Cc1cc2c(c3oc(C4(C)OC4C)cc(=O)c13)C(=O)c1c(ccc(C3CC(C)(N(C)C)C(O)C(C)O3)c1O)C2=O (stereo not drawn) [Deacetyl HP530E] | 6.3 (≈ 11.5 µM)
CC=CC1OC1(C)c1cc(=O)c2c(C)cc3c(c2o1)C(=O)c1c(ccc(C2CC(C)(N(C)C)C(O)C(C)O2)c1O)C3=O (stereo not drawn) [Deacetyl HP530D] | 6.3 (≈ 11 µM)

System: Xanthomonas maltophilia JCM1975
Experiment: Antimicrobial activity (MIC), Xanthomonas maltophilia
Format: cell-based
Settings: Stenotrophomonas maltophilia
Text: as §1

SMILES | MIC [mg/L]
Cc1cc2c(c3oc(C4(C)OC4C)cc(=O)c13)C(=O)c1c(ccc(C3CC(C)(N(C)C)C(O)C(C)O3)c1O)C2=O (stereo not drawn) [Deacetyl HP530E] | 25 (≈ 45.7 µM)
CC=CC1OC1(C)c1cc(=O)c2c(C)cc3c(c2o1)C(=O)c1c(ccc(C2CC(C)(N(C)C)C(O)C(C)O2)c1O)C3=O (stereo not drawn) [Deacetyl HP530D] | 50 (≈ 87.2 µM)

System: Bacillus subtilis H17Rec^+
Experiment: Antimicrobial activity (MIC), Bacillus subtilis H17Rec^+
Format: cell-based
Settings: not given
Text: as §1

SMILES | MIC [mg/L]
Cc1cc2c(c3oc(C4(C)OC4C)cc(=O)c13)C(=O)c1c(ccc(C3CC(C)(N(C)C)C(O)C(C)O3)c1O)C2=O (stereo not drawn) [Deacetyl HP530E] | 6.3 (≈ 11.5 µM)
CC=CC1OC1(C)c1cc(=O)c2c(C)cc3c(c2o1)C(=O)c1c(ccc(C2CC(C)(N(C)C)C(O)C(C)O2)c1O)C3=O (stereo not drawn) [Deacetyl HP530D] | 12.5 (≈ 21.8 µM)

System: Klebsiella pneumoniae JCM1662
Experiment: Antimicrobial activity (MIC), Klebsiella pneumoniae
Format: cell-based
Settings: not given
Text: as §1

SMILES | MIC [mg/L]
Cc1cc2c(c3oc(C4(C)OC4C)cc(=O)c13)C(=O)c1c(ccc(C3CC(C)(N(C)C)C(O)C(C)O3)c1O)C2=O (stereo not drawn) [Deacetyl HP530E] | > 100
CC=CC1OC1(C)c1cc(=O)c2c(C)cc3c(c2o1)C(=O)c1c(ccc(C2CC(C)(N(C)C)C(O)C(C)O2)c1O)C3=O (stereo not drawn) [Deacetyl HP530D] | > 100

System: Escherichia coli JCM1649
Experiment: Antimicrobial activity (MIC), Escherichia coli
Format: cell-based
Settings: not given
Text: as §1

SMILES | MIC [mg/L]
Cc1cc2c(c3oc(C4(C)OC4C)cc(=O)c13)C(=O)c1c(ccc(C3CC(C)(N(C)C)C(O)C(C)O3)c1O)C2=O (stereo not drawn) [Deacetyl HP530E] | > 100
CC=CC1OC1(C)c1cc(=O)c2c(C)cc3c(c2o1)C(=O)c1c(ccc(C2CC(C)(N(C)C)C(O)C(C)O2)c1O)C3=O (stereo not drawn) [Deacetyl HP530D] | > 100

System: Micrococcus luteus JCM1464
Experiment: Antimicrobial activity (MIC), Micrococcus luteus
Format: cell-based
Settings: not given
Text: as §1

SMILES | MIC [mg/L]
Cc1cc2c(c3oc(C4(C)OC4C)cc(=O)c13)C(=O)c1c(ccc(C3CC(C)(N(C)C)C(O)C(C)O3)c1O)C2=O (stereo not drawn) [Deacetyl HP530E] | 0.4 (≈ 0.73 µM)
CC=CC1OC1(C)c1cc(=O)c2c(C)cc3c(c2o1)C(=O)c1c(ccc(C2CC(C)(N(C)C)C(O)C(C)O2)c1O)C3=O (stereo not drawn) [Deacetyl HP530D] | 1.6 (≈ 2.79 µM)

System: Staphylococcus aureus JCM2151
Experiment: Antimicrobial activity (MIC), Staphylococcus aureus
Format: cell-based
Settings: not given
Text: as §1

SMILES | MIC [mg/L]
Cc1cc2c(c3oc(C4(C)OC4C)cc(=O)c13)C(=O)c1c(ccc(C3CC(C)(N(C)C)C(O)C(C)O3)c1O)C2=O (stereo not drawn) [Deacetyl HP530E] | 3.2 (≈ 5.84 µM)
CC=CC1OC1(C)c1cc(=O)c2c(C)cc3c(c2o1)C(=O)c1c(ccc(C2CC(C)(N(C)C)C(O)C(C)O2)c1O)C3=O (stereo not drawn) [Deacetyl HP530D] | 1.6 (≈ 2.79 µM)

System: Saccharomyces cerevisiae JCM1499
Experiment: Antimicrobial activity (MIC), Saccharomyces cerevisiae
Format: cell-based
Settings: not given
Text: as §1

SMILES | MIC [mg/L]
Cc1cc2c(c3oc(C4(C)OC4C)cc(=O)c13)C(=O)c1c(ccc(C3CC(C)(N(C)C)C(O)C(C)O3)c1O)C2=O (stereo not drawn) [Deacetyl HP530E] | > 100
CC=CC1OC1(C)c1cc(=O)c2c(C)cc3c(c2o1)C(=O)c1c(ccc(C2CC(C)(N(C)C)C(O)C(C)O2)c1O)C3=O (stereo not drawn) [Deacetyl HP530D] | 50 (≈ 87.2 µM)

System: mouse fibrosarcoma Meth-A cell line
Experiment: Antitumor activity, increase in life span of CDF1 mice inoculated with Meth-A cells
Format: in vivo
Settings: 0.25 mg/kg i.p. once a day, day 1-4
Text: 1) CDF1 mice were inoculated intraperitoneally with 1×10^6 cells of mouse fibrosarcoma Meth-A cell line on day 0. HP530 compounds and their derivatives dissolved in a physiological salt solution were administrated intraperitoneally once a day on day 1-4. Increase in life span is represented by the percentage of the ratio of the mean number of surviving days (T) of the treated groups of mice to the mean number of surviving days (C) of the untreated groups of mice.

SMILES | Antitumor Activity T/C [%]
CC=CC1OC1(C)c1cc(=O)c2c(C)cc3c(c2o1)C(=O)c1c(ccc(C2CC(C)(N(C)C)C(O)C(C)O2)c1O)C3=O (stereo not drawn) [Deacetyl HP530D] | 92

Same assay, conditions: 0.5 mg/kg i.p. once a day, day 1-4

SMILES | Antitumor Activity T/C [%]
CC=CC1OC1(C)c1cc(=O)c2c(C)cc3c(c2o1)C(=O)c1c(ccc(C2CC(C)(N(C)C)C(O)C(C)O2)c1O)C3=O (stereo not drawn) [Deacetyl HP530D] | 108

Same assay, conditions: 1.0 mg/kg i.p. once a day, day 1-4

SMILES | Antitumor Activity T/C [%]
CC=CC1OC1(C)c1cc(=O)c2c(C)cc3c(c2o1)C(=O)c1c(ccc(C2CC(C)(N(C)C)C(O)C(C)O2)c1O)C3=O (stereo not drawn) [Deacetyl HP530D] | 123

Same assay, conditions: 1.25 mg/kg i.p. once a day, day 1-4

SMILES | Antitumor Activity T/C [%]
Cc1cc2c(c3oc(C4(C)OC4C)cc(=O)c13)C(=O)c1c(ccc(C3CC(C)(N(C)C)C(O)C(C)O3)c1O)C2=O (stereo not drawn) [Deacetyl HP530E] | 107

Same assay, conditions: 2.0 mg/kg i.p. once a day, day 1-4

SMILES | Antitumor Activity T/C [%]
CC=CC1OC1(C)c1cc(=O)c2c(C)cc3c(c2o1)C(=O)c1c(ccc(C2CC(C)(N(C)C)C(O)C(C)O2)c1O)C3=O (stereo not drawn) [Deacetyl HP530D] | 185

Same assay, conditions: 2.5 mg/kg i.p. once a day, day 1-4

SMILES | Antitumor Activity T/C [%]
Cc1cc2c(c3oc(C4(C)OC4C)cc(=O)c13)C(=O)c1c(ccc(C3CC(C)(N(C)C)C(O)C(C)O3)c1O)C2=O (stereo not drawn) [Deacetyl HP530E] | 183

Same assay, conditions: 5.0 mg/kg i.p. once a day, day 1-4

SMILES | Antitumor Activity T/C [%]
Cc1cc2c(c3oc(C4(C)OC4C)cc(=O)c13)C(=O)c1c(ccc(C3CC(C)(N(C)C)C(O)C(C)O3)c1O)C2=O (stereo not drawn) [Deacetyl HP530E] | > 187

Same assay, conditions: 10.0 mg/kg i.p. once a day, day 1-4

SMILES | Antitumor Activity T/C [%]
Cc1cc2c(c3oc(C4(C)OC4C)cc(=O)c13)C(=O)c1c(ccc(C3CC(C)(N(C)C)C(O)C(C)O3)c1O)C2=O (stereo not drawn) [Deacetyl HP530E] | 83

System: Salmonella typhimurium TA1535
Experiment: Antimicrobial activity (MIC), Salmonella typhimurium
Format: cell-based
Settings: Salmonella enterica
Text: as §1

SMILES | MIC [mg/L]
Cc1cc2c(c3oc(C4(C)OC4C)cc(=O)c13)C(=O)c1c(ccc(C3CC(C)(N(C)C)C(O)C(C)O3)c1O)C2=O (stereo not drawn) [Deacetyl HP530E] | 0.4 (≈ 0.73 µM)
CC=CC1OC1(C)c1cc(=O)c2c(C)cc3c(c2o1)C(=O)c1c(ccc(C2CC(C)(N(C)C)C(O)C(C)O2)c1O)C3=O (stereo not drawn) [Deacetyl HP530D] | 3.2 (≈ 5.58 µM)

System: CDF1 mice
Experiment: Acute toxicity in CDF1 mice
Format: in vivo, mouse
Settings: 5 mg/kg, intraperitoneal, three CDF1 mice

SMILES | Acute toxicity
Cc1cc2c(c3oc(C4(C)OC4C)cc(=O)c13)C(=O)c1c(ccc(C3CC(C)(N(C)C)C(O)C(C)O3)c1O)C2=O (stereo not drawn) [Deacetyl HP530E] | no toxicity

Same assay, conditions: 20 mg/kg, intraperitoneal, three CDF1 mice

SMILES | Acute toxicity
CC=CC1OC1(C)c1cc(=O)c2c(C)cc3c(c2o1)C(=O)c1c(ccc(C2CC(C)(N(C)C)C(O)C(C)O2)c1O)C3=O (stereo not drawn) [Deacetyl HP530D] | no toxicity

System: Proteus vulgaris JCM1668
Experiment: Antimicrobial activity (MIC), Proteus vulgaris
Format: cell-based
Settings: not given
Text: as §1

SMILES | MIC [mg/L]
Cc1cc2c(c3oc(C4(C)OC4C)cc(=O)c13)C(=O)c1c(ccc(C3CC(C)(N(C)C)C(O)C(C)O3)c1O)C2=O (stereo not drawn) [Deacetyl HP530E] | > 100
CC=CC1OC1(C)c1cc(=O)c2c(C)cc3c(c2o1)C(=O)c1c(ccc(C2CC(C)(N(C)C)C(O)C(C)O2)c1O)C3=O (stereo not drawn) [Deacetyl HP530D] | > 100

System: Candida albicans JCM1542
Experiment: Antimicrobial activity (MIC), Candida albicans
Format: cell-based
Settings: not given
Text: as §1

SMILES | MIC [mg/L]
Cc1cc2c(c3oc(C4(C)OC4C)cc(=O)c13)C(=O)c1c(ccc(C3CC(C)(N(C)C)C(O)C(C)O3)c1O)C2=O (stereo not drawn) [Deacetyl HP530E] | > 100
CC=CC1OC1(C)c1cc(=O)c2c(C)cc3c(c2o1)C(=O)c1c(ccc(C2CC(C)(N(C)C)C(O)C(C)O2)c1O)C3=O (stereo not drawn) [Deacetyl HP530D] | > 100

System: not listed separately
Experiment: Solubility
Settings: ethyl acetate, acetone, n-hexane

SMILES | Solubility
Cc1cc2c(c3oc(C4(C)OC4C)cc(=O)c13)C(=O)c1c(ccc(C3CC(C)(N(C)C)C(O)C(C)O3)c1O)C2=O (stereo not drawn) [Deacetyl HP530E] | hardly soluble in ethyl acetate, acetone and n-hexane
CC=CC1OC1(C)c1cc(=O)c2c(C)cc3c(c2o1)C(=O)c1c(ccc(C2CC(C)(N(C)C)C(O)C(C)O2)c1O)C3=O (stereo not drawn) [Deacetyl HP530D] | hardly soluble in ethyl acetate, acetone and n-hexane

Same assay, conditions: solvents in which soluble (acidic water, organic solvents)

SMILES | Solubility
Cc1cc2c(c3oc(C4(C)OC4C)cc(=O)c13)C(=O)c1c(ccc(C3CC(C)(N(C)C)C(O)C(C)O3)c1O)C2=O (stereo not drawn) [Deacetyl HP530E] | Soluble in acidic water, methanol, chloroform and benzene
CC=CC1OC1(C)c1cc(=O)c2c(C)cc3c(c2o1)C(=O)c1c(ccc(C2CC(C)(N(C)C)C(O)C(C)O2)c1O)C3=O (stereo not drawn) [Deacetyl HP530D] | Soluble in acidic water, methanol, chloroform and benzene

Same assay, conditions: water

SMILES | Solubility
Cc1cc2c(c3oc(C4(C)OC4C)cc(=O)c13)C(=O)c1c(ccc(C3CC(C)(N(C)C)C(O)C(C)O3)c1O)C2=O (stereo not drawn) [Deacetyl HP530E] | insoluble in water
CC=CC1OC1(C)c1cc(=O)c2c(C)cc3c(c2o1)C(=O)c1c(ccc(C2CC(C)(N(C)C)C(O)C(C)O2)c1O)C3=O (stereo not drawn) [Deacetyl HP530D] | insoluble in water

System: W98 cell line
Experiment: Cytotoxicity (IC100) against W98 cell line
Format: cell-based
Settings: Homo sapiens; W98 cells, final 10% methanol solutions; read-out: IC100 (100% growth inhibiting concentration)
Protocol: 2) Cytotoxicity (IC100) against W98 cell line obtained by converting the lung cells of a human emryo by an SV40 virus was examined in the following way. When the HP530 compounds and their derivatives dissolved in methanol were added to culture solutions in such a manner that the culture solutions were prepared final 10% methanol solutions, the cytotoxicity of the HP530 compounds and their derivatives against the growth of the W98 cells in the culture solution was measured as 100% growth inhibiting concentration (IC100).

SMILES | IC100 [µg/mL]
Cc1cc2c(c3oc(C4(C)OC4C)cc(=O)c13)C(=O)c1c(ccc(C3CC(C)(N(C)C)C(O)C(C)O3)c1O)C2=O (stereo not drawn) [Deacetyl HP530E] | 0.00015
CC=CC1OC1(C)c1cc(=O)c2c(C)cc3c(c2o1)C(=O)c1c(ccc(C2CC(C)(N(C)C)C(O)C(C)O2)c1O)C3=O (stereo not drawn) [Deacetyl HP530D] | 0.00015

System: Bacillus subtilis M45Rec^-
Experiment: Antimicrobial activity (MIC), Bacillus subtilis M45Rec^-
Format: cell-based
Settings: not given
Text: as §1

SMILES | MIC [mg/L]
Cc1cc2c(c3oc(C4(C)OC4C)cc(=O)c13)C(=O)c1c(ccc(C3CC(C)(N(C)C)C(O)C(C)O3)c1O)C2=O (stereo not drawn) [Deacetyl HP530E] | 0.2 (≈ 0.365 µM)
CC=CC1OC1(C)c1cc(=O)c2c(C)cc3c(c2o1)C(=O)c1c(ccc(C2CC(C)(N(C)C)C(O)C(C)O2)c1O)C3=O (stereo not drawn) [Deacetyl HP530D] | 0.4 (≈ 0.697 µM)
